# According to patent US9682976B2, “Protein kinase C inhibitors and uses thereof” (Rigel Pharmaceuticals, Inc., priority 2012, dated 2017):
# pEC50: −log10 of the molar value.
# Test system: PKC mediated IL-2 production
# Assay: IL-2 ELISA, human primary T cell, anti CD3+CD28+
# Format: cell-based
# Conditions: Homo sapiens, T-cell, 24 h, human primary T cells stimulated with αCD3 and αCD28, 24 hours
# Method in brief: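 Human peripheral blood T cells, pre-expanded with αCD3/αCD28 and IL-2 and then washed free of IL-2, were pre-incubated with compound for 1 h at 37° C. They were then stimulated on plates coated with […] αCD3 and 5 μg/ml αCD28, or with 0.5 ng/ml PMA plus 0.1 uM ionomycin in the counter assay. IL-2 in supernatants was measured by ELISA after 24 h.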
row,pEC50,SMILES
1,5.00 to 6.00,"CC1(C)C[C@H](Nc2nc(Nc3ccc(OCC(O)CO)c(C#N)c3)ncc2F)C[C@@H]2CCCN21 (stereo partly drawn) [Compound 212, 2-(2,3-dihydroxypropoxy)-5-((4-(((7R,8aS)-5,5-dimethyloctahydroindolizin-7-yl)amino)-5-fluoropyrimidin-2-yl)amino)benzonitrile]"
2,6.30 to 7.00,"CC1(C)C[C@H](Nc2nc(Nc3ccc(OCCCO)c(C#N)c3)ncc2F)C[C@@H]2CCCN21 [Compound 213, 5-((4-(((7R,8aS)-5,5-dimethyloctahydroindolizin-7-yl)amino)-5-fluoropyrimidin-2-yl)amino)-2-(3-hydroxypropoxy)benzonitrile]"
3,6.30 to 7.00,"CC1(C)C[C@H](Nc2nc(Nc3ccc(OCC(O)CO)c(-n4cnnn4)c3)ncc2F)C[C@@H]2CCCN21 (stereo partly drawn) [Compound 214, 3-(4-((4-(((7R,8aS)-5,5-dimethyloctahydroindolizin-7-yl)amino)-5-fluoropyrimidin-2-yl)amino)-2-(1H-tetrazol-1-yl)phenoxy)propane-1,2-diol]"
4,> 7.00,"CC1(C)C[C@H](Nc2nc(Nc3ccc(OCCCO)c(-n4cnnn4)c3)ncc2F)C[C@@H]2CCCN21 [Compound 215, 3-(4-((4-(((7R,8aS)-5,5-dimethyloctahydroindolizin-7-yl)amino)-5-fluoropyrimidin-2-yl)amino)-2-(1H-tetrazol-1-yl)phenoxy)propan-1-ol]"
5,< 5.00,"COc1cc(Nc2ncc(F)c(N[C@@H]3C[C@@H]4CCCN4C(C)(C)C3)n2)ccc1OCCO [Compound 216, 2-(4-((4-(((7R,8aS)-5,5-dimethyloctahydroindolizin-7-yl)amino)-5-fluoropyrimidin-2-yl)amino)-2-methoxyphenoxy)ethan-1-ol]"
6,< 5.00,"[2H]C([2H])(O)C([2H])([2H])Oc1ccc(Nc2ncc(F)c(N[C@@H]3C[C@@H]4CCCN4C(C)(C)C3)n2)cc1OC [Compound 217, 2-(4-((4-(((7R,8aS)-5,5-dimethyloctahydroindolizin-7-yl)amino)-5-fluoropyrimidin-2-yl)amino)-2-methoxyphenoxy)ethan-1,1,2,2-d4-1-ol]"
7,6.30 to 7.00,"C[C@H](CO)COc1cc(F)c(Nc2ncc(F)c(N[C@@H]3C[C@@H]4CCCN4C(C)(C)C3)n2)cc1-n1nnn(C)c1=O [Compound 222, 1-(5-((4-(((7R,8aS)-5,5-dimethyloctahydroindolizin-7-yl)amino)-5-fluoropyrimidin-2-yl)amino)-4-fluoro-2-((R)-3-hydroxy-2-methylpropoxy)phenyl)-4-methyl-1,4-dihydro-5H-tetrazol-5-one]"
8,> 7.00,"CC1(C)C[C@H](Nc2nc(Nc3ccc(OCCO)c(-n4cnnn4)c3)ncc2Cl)C[C@@H]2CCCN21 [Compound 223, 2-(4-((5-chloro-4-(((7R,8aS)-5,5-dimethyloctahydroindolizin-7-yl)amino)pyrimidin-2-yl)amino)-2-(1H-tetrazol-1-yl)phenoxy)ethan-1-ol]"
9,6.30 to 7.00,"Cn1nnn(-c2cc(Nc3ncc(F)c(N[C@@H]4C[C@@H]5CCCN5C(C)(C)C4)n3)c(F)cc2OCCNC(=O)OC(C)(C)C)c1=O [Compound 226, tert-butyl (2-(4-((4-(((7R,8aS)-5,5-dimethyloctahydroindolizin-7-yl)amino)-5-fluoropyrimidin-2-yl)amino)-5-fluoro-2-(4-methyl-5-oxo-4,5-dihydro-1H-tetrazol-1-yl)phenoxy)ethyl)carbamate]"
10,5.00 to 6.00,"CC(O)COc1ccc(Nc2ncc(Cl)c(N[C@@H]3C[C@@H]4CCCN4C(C)(C)C3)n2)cc1C#N (stereo partly drawn) [Compound 229, 5-((5-chloro-4-(((7R,8aS)-5,5-dimethyloctahydroindolizin-7-yl)amino)pyrimidin-2-yl)amino)-2-(2-hydroxypropoxy)benzonitrile]"
11,6.30 to 7.00,"Cn1nnn(-c2cc(Nc3ncc(F)c(N[C@@H]4C[C@@H]5CCCN5C(C)(C)C4)n3)c(F)cc2OCC(O)C(F)(F)F)c1=O (stereo partly drawn) [Compound 230, 1-(5-((4-(((7R,8aS)-5,5-dimethyloctahydroindolizin-7-yl)amino)-5-fluoropyrimidin-2-yl)amino)-4-fluoro-2-(3,3,3-trifluoro-2-hydroxypropoxy)phenyl)-4-methyl-1,4-dihydro-5H-tetrazol-5-one]"
12,6.00 to 6.30,"Cn1nnn(-c2cc(Nc3ncc(Cl)c(N[C@@H]4C[C@@H]5CCCN5C(C)(C)C4)n3)c(F)cc2O)c1=O [Compound 232, 1-(5-((5-chloro-4-(((7R,8aS)-5,5-dimethyloctahydroindolizin-7-yl)amino)pyrimidin-2-yl)amino)-4-fluoro-2-hydroxyphenyl)-4-methyl-1,4-dihydro-5H-tetrazol-5-one]"
13,6.30 to 7.00,"CO[C@@H](C)COc1cc(F)c(Nc2ncc(F)c(N[C@@H]3C[C@@H]4CCCN4C(C)(C)C3)n2)cc1-n1nnn(C)c1=O [Compound 233, 1-(5-((4-(((7R,8aS)-5,5-dimethyloctahydroindolizin-7-yl)amino)-5-fluoropyrimidin-2-yl)amino)-4-fluoro-2-((S)-2-methoxypropoxy)phenyl)-4-methyl-1,4-dihydro-5H-tetrazol-5-one]"
14,< 5.00,"CO[C@@H](C)COc1cc(F)c(Nc2ncc(F)c(N(C[C@H](C)OC)[C@@H]3C[C@@H]4CCCN4C(C)(C)C3)n2)cc1-n1nnn(C)c1=O [Compound 234, 1-(5-((4-(((7R,8aS)-5,5-dimethyloctahydroindolizin-7-yl)((S)-2-methoxypropyl)amino)-5-fluoropyrimidin-2-yl)amino)-4-fluoro-2-((S)-2-methoxypropoxy)phenyl)-4-methyl-1,4-dihydro-5H-tetrazol-5-one]"
15,> 7.00,"C[C@H](O)COc1cc(F)c(Nc2ncc(Cl)c(N[C@@H]3C[C@@H]4CCCN4C(C)(C)C3)n2)cc1-n1nnn(C)c1=O [Compound 235, 1-(5-((5-chloro-4-(((7R,8aS)-5,5-dimethyloctahydroindolizin-7-yl)amino)pyrimidin-2-yl)amino)-4-fluoro-2-((S)-2-hydroxypropoxy)phenyl)-4-methyl-1,4-dihydro-5H-tetrazol-5-one]"
16,> 7.00,"CC(O)COc1cc(F)c(Nc2ncc(Cl)c(N[C@@H]3C[C@@H]4CCCN4C(C)(C)C3)n2)cc1-n1nnn(C)c1=O (stereo partly drawn) [Compound 236, 1-(5-((5-chloro-4-(((7R,8aS)-5,5-dimethyloctahydroindolizin-7-yl)amino)pyrimidin-2-yl)amino)-4-fluoro-2-(2-hydroxypropoxy)phenyl)-4-methyl-1,4-dihydro-5H-tetrazol-5-one]"
17,> 7.00,"Cn1nnn(-c2cc(Nc3ncc(Cl)c(N[C@@H]4C[C@@H]5CCCN5C(C)(C)C4)n3)c(F)cc2OCCO)c1=O [Compound 237, 1-(5-((5-chloro-4-(((7R,8aS)-5,5-dimethyloctahydroindolizin-7-yl)amino)pyrimidin-2-yl)amino)-4-fluoro-2-(2-hydroxyethoxy)phenyl)-4-methyl-1,4-dihydro-5H-tetrazol-5-one]"
18,6.00 to 6.30,"CO[C@@H](C)COc1cc(F)c(Nc2ncc(Cl)c(N[C@@H]3C[C@@H]4CCCN4C(C)(C)C3)n2)cc1-n1nnn(C)c1=O [Compound 238, 1-(5-((5-chloro-4-(((7R,8aS)-5,5-dimethyloctahydroindolizin-7-yl)amino)pyrimidin-2-yl)amino)-4-fluoro-2-((S)-2-methoxypropoxy)phenyl)-4-methyl-1,4-dihydro-5H-tetrazol-5-one]"

row,SMILES,pEC50
1,"Cn1nnn(-c2cc(Nc3ncc(F)c(N[C@@H]4C[C@@H]5CCCN5C(C)(C)C4)n3)c(F)cc2OC2CC(OCc3ccccc3)C2)c1=O (stereo partly drawn) [Compound 225, 1-(2-(3-(benzyloxy)cyclobutoxy)-5-((4-(((7R,8aS)-5,5-dimethyloctahydroindolizin-7-yl)amino)-5-fluoropyrimidin-2-yl)amino)-4-fluorophenyl)-4-methyl-1,4-dihydro-5H-tetrazol-5-one]",6.30 to 7.00
2,"Cn1nnn(-c2cc(Nc3ncc(F)c(N[C@@H]4C[C@@H]5CCCN5C(C)(C)C4)n3)c(F)cc2OC2CC(O)C2)c1=O (stereo partly drawn) [Compound 227, 1-(5-((4-(((7R,8aS)-5,5-dimethyloctahydroindolizin-7-yl)amino)-5-fluoropyrimidin-2-yl)amino)-4-fluoro-2-(3-hydroxycyclobutoxy)phenyl)-4-methyl-1,4-dihydro-5H-tetrazol-5-one]",6.30 to 7.00

# Same assay, conditions: T-cell, human primary T cells stimulated with αCD3 and αCD28, 24 hours
row,SMILES,pEC50
1,CC1(C)C[C@H](N(CC(O)CO)c2nc(Nc3ccc(OCC(O)CO)c(C#N)c3)ncc2F)C[C@@H]2CCCN21 (stereo partly shown) [Compound 211],5.00 to 6.00
2,"[2H]C([2H])(O)C([2H])([2H])Oc1cc(F)c(Nc2ncc(F)c(N[C@@H]3C[C@@H]4CCCN4C(C)(C)C3)n2)cc1-n1nnn(C)c1=O [Compound 221, 1-(5-((4-(((7R,8aS)-5,5-dimethyloctahydroindolizin-7-yl)amino)-5-fluoropyrimidin-2-yl)amino)-4-fluoro-2-(2-hydroxyethoxy-1,1,2,2-d4)phenyl)-4-methyl-1,4-dihydro-5H-tetrazol-5-one]",> 7.00

# Same assay, conditions: human primary T cells stimulated with αCD3 and αCD28, 24 hours
row,pEC50,SMILES
1,6.30 to 7.00,"[2H]C([2H])(O)C([2H])([2H])Oc1ccc(Nc2ncc(F)c(N[C@@H]3C[C@@H]4CCCN4C(C)(C)C3)n2)cc1C#N [Compound 219, 5-((4-(((7R,8aS)-5,5-dimethyloctahydroindolizin-7-yl)amino)-5-fluoropyrimidin-2-yl)amino)-2-(2-hydroxyethoxy-1,1,2,2-d4)benzonitrile]"
2,6.30 to 7.00,"Cn1nnn(-c2cc(Nc3ncc(F)c(N[C@@H]4C[C@@H]5CCCN5C(C)(C)C4)n3)c(F)cc2OCCN)c1=O [Compound 228, 1-(2-(2-aminoethoxy)-5-((4-(((7R,8aS)-5,5-dimethyloctahydroindolizin-7-yl)amino)-5-fluoropyrimidin-2-yl)amino)-4-fluorophenyl)-4-methyl-1,4-dihydro-5H-tetrazol-5-one]"
3,6.00 to 6.30,"Cn1nnn(-c2cc(Nc3ncc(F)c(N[C@@H]4C[C@@H]5CCCN5C(C)(C)C4)n3)c(F)cc2OCCN)c1=O [Compound 231, 1-(2-(2-aminoethoxy)-5-((4-(((7R,8aS)-5,5-dimethyloctahydroindolizin-7-yl)amino)-5-fluoropyrimidin-2-yl)amino)-4-fluorophenyl)-4-methyl-1,4-dihydro-5H-tetrazol-5-one]"
